Experimental data published in US20110097310A1, “ANTI-AGING OR ANTIOXIDANT COMPOSITION CONTAINING PLANT STEM CELL LINE DERIVED FROM CAMBIUM OF PANAX GINSENG” (UNHWA CORPORATION, priority 2008, published 2011).

Test system: MMP-1
Assay: Inhibition of MMP-1 expression caused by UVB radiation in NHF cells
Format: cell-based, human
Conditions: NHF(p6), 40 mJ UVB, 48 hours, 10 uM positive control; Control UV = 230
Experimental: When MMPs are increased due to exposure to UV radiation, the increased MMPs will degrade skin collagen to form skin wrinkles. Thus, in order to examine whether MMP-1 expression that increased due to UV radiation is inhibited by the extract or culture medium of the wild ginseng cambium-derived homogeneous cell line, the following test was carried out.
NHF(p6) cells were dispensed in a 12-well plate at a density of 75,000 cells/well and starved for 24 hours. Then, the cells were radiated with 40 mJ of UVB and treated with varying concentrations of each of the samples for 48 hours. Then, an experiment was carried out using a kit (Amersham, RPN 2610). As a positive control, 10 μM retinoic acid was used.

`CC1=C(/C=C/C(C)=C/C=C/C(C)=C/C(=O)O)C(C)(C)CCC1` [Retinoic acid, retinoic acid] was tested, and the “MMP-1 expression, % of control (No UV = 100)” value was 85 % of control.
